Test results as given in paper PMC7782499, “Progerinin, an optimized progerin-lamin A binding inhibitor, ameliorates premature senescence phenotypes of Hutchinson-Gilford progeria syndrome” (Communications Biology, 2021).
Several values for one entry are separate records, joined by “and”; a condition that tells them apart may be missing. Equal values may be shown once.

How the values were obtained:
Lmna G609G/G609G mouse = system: Lmna G609G/G609G mouse; set-up: method as in PMID 27617860; conditions: intraperitoneal injection; cited from earlier work
progerin = molecular target: T1, progerin (Homo sapiens, UniProt P02545); test: Exogenous GFP-progerin expression in transfected HEK293 cells; assay type: cell-based; set-up: expressed in transfected cells; host or cells: HEK293 (ATCC); vector from T. Misteli (NCI); conditions: for GFP intensity after treatment with SLC-D011, Ave: average; for GFP intensity after treatment with SLC-D011: single replicates
T1 sequence (P02545 1-614 isoform P02545-6): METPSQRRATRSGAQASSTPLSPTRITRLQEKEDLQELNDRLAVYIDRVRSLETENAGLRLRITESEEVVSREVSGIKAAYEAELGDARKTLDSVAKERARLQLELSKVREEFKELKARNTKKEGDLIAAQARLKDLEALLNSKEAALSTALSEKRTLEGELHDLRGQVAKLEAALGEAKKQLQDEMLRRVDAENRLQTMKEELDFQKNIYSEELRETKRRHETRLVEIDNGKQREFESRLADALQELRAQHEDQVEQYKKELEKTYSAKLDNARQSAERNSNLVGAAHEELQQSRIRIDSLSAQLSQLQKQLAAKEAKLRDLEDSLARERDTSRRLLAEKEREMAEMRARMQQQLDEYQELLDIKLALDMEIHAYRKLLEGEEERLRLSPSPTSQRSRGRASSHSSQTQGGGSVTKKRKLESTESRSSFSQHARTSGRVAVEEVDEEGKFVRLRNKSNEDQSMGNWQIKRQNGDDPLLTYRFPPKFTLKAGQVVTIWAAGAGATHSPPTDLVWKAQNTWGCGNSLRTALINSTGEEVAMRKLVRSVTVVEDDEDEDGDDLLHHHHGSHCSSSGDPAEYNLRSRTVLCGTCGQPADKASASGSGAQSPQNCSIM
Method: A. In vivo pharmacokinetic (PK) analysis of JH010 (performed in rats). […] B Effect of SLC-D011 on human ERG (hERG). […] C In vivo pharmacokinetic analysis of SLD-D011. […] HEK293 cells transiently transfected with GFP-PG vectors were treated with SLC-D011 for 24 hr (n = 3 independent experiment; two-tailed Student’s t test). […] “Con” means dimethyl sulfoxide (DMSO)-treated control.
GFP tag conjugated EV (GFP-EV), lamin A (GFP-LA), lamin A-C661A (GFP-LA-C661A), progerin (GFP-PG), and progerin-C611A (GFP-PG-C611A) vectors were used. GFP-PG and GFP-LA expression vectors were kindly provided by Misteli T. (National Cancer Institute [NCI], Frederick, MD, USA). GFP-LA-C661A and GFP-PG-C611A expression vectors were created by a single point mutation in CaaX motif. The CSIM sequence of lamin A, or progerin was mutated to ASIM. jetPEI (Polyplus Transfection, NY, USA) was used for transfection of expression vectors. Vectors were mixed with 1.5 μl of jetPEI in 150 mM NaCl solution. The mixture was added to HEK293 cells. After 4 h of incubation, medium was replaced with a new medium supplemented with 10% FBS.
Protein was extracted from cells using a radioimmunoprecipitation assay (RIPA) buffer (50 mM Tris-Cl, pH 7.5, 150 mM NaCl, 1% NP-40, 0.1% SDS, and 10% sodium deoxycholate). Samples were separated by sodium dodecyl sulfate-polyacrylamide gel electrophoresis (SDS-PAGE) and transferred to polyvinylidene difluoride (PVDF) membranes. Blotted membranes were blocked with 3% skimmed milk in TBS-T buffer (20 mM Tris pH 7.6, 150 mM NaCl, and 0.05% Tween 20) for 1 h followed by incubation with specific primary antibodies. Horseradish peroxidase (HRP)-conjugated goat anti-mouse, goat anti-rabbit, and mouse anti-goat IgG antibodies (Pierce, Thermo Fisher Scientific, Inc., Rockford, IL, USA) were used as secondary antibodies. Peroxidase activity was detected by chemiluminescence using an ECL kit (Intron, Seoul, Korea) following the manufacturer’s instructions. Bands were quantified using Image J software (National Institute of Health, NIH).

Compound	Extension of life span (Lmna G609G/G609G mouse)	Increase of life span (Lmna G609G/G609G mouse)	GFP intensity after treatment with SLC-D011, Ave (progerin; 10nM)	GFP intensity after treatment with SLC-D011 (progerin; 10nM)	GFP intensity after treatment with SLC-D011, Ave (progerin; 50nM)	GFP intensity after treatment with SLC-D011 (progerin; 50nM)	GFP intensity after treatment with SLC-D011, Ave (progerin; 100nM)	GFP intensity after treatment with SLC-D011 (progerin; 100nM)	GFP intensity after treatment with SLC-D011, Ave (progerin; 500nM)	GFP intensity after treatment with SLC-D011 (progerin; 500nM)	GFP intensity after treatment with SLC-D011, Ave (progerin; 1μM)	GFP intensity after treatment with SLC-D011 (progerin; 1μM)	GFP intensity after treatment with SLC-D011, Ave (progerin; 2μM)	GFP intensity after treatment with SLC-D011 (progerin; 2μM)	GFP intensity after treatment with SLC-D011, Ave (progerin; 5μM)	GFP intensity after treatment with SLC-D011 (progerin; 5μM)	Concentration from which exogenous progerin expression is reduced (progerin; HEK293, GFP-PG, 24 hr)
CC1(C)Oc2cc3oc(=O)ccc3cc2CC1OC(=O)C=Cc1cccnc1 (centres unmarked) [JH4]	~ 4 weeks	~ 25%	–	–	–	–	–	–	–	–	–	–	–	–	–	–	–
CC1(C)Oc2cc3oc(=O)ccc3cc2C[C@@H]1OC/C=C/c1ccccc1 [SLC-D011]	–	–	23.7595 AU	22.794 AU and 22.0662 AU and 26.4183 AU	15.0559 AU	15.1696 AU and 15.171 AU and 14.827 AU	3.935 AU	3.384 AU and 4.172 AU and 4.251 AU	1.357 AU	1.4575 AU and 1.25 AU and 1.363 AU	1.02 AU	0.898 AU and 1.076 AU and 1.085 AU	0.8179 AU	0.8856 AU and 0.7639 AU and 0.8042 AU	0.08935 AU	0.1141 AU and 0.03666 AU and 0.1173 AU	100 nM
